The values below come from patent US6150325A, “Bicyclic tachykinins antagonists, preparation thereof and their use in pharmaceutical compositions” (A. Menarini Industrie Farmaceutiche Riunite S.r.l., priority 1995, dated 2000).

This assay has as its target T1, NKA receptor (Mus musculus, UniProt P30549).
T1 construct: contractions of the urinary bladder in the anaesthetized mouse; from tissue; host or cells: urinary bladder of the anaesthetized animal, in vivo
T1 sequence (P30549 1-384): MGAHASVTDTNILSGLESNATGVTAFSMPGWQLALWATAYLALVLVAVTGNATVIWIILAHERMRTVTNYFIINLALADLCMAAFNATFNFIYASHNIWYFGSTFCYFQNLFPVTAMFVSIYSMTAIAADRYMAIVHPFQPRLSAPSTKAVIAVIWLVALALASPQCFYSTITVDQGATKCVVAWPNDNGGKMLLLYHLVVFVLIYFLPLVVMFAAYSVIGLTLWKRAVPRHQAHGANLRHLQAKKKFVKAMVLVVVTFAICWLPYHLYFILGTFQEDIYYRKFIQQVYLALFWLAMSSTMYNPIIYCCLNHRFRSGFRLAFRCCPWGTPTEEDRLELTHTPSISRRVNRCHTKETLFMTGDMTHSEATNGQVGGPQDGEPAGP
Nature of the assay: in vivo inhibition of agonist [betaAla8]NKA(4-10)-induced contractions of the urinary bladder after intravenous administration. To be noted: anaesthetized mouse, 10 nmol/Kg i.v. The procedure: The capability of the compounds of the present invention to interact as agonists or antagonists with the neurokynin A (NKA) receptor has been valued in a in vitro test using the pulmonary artery of a rabbit (RPA) (Rovero et al., Neuropeptides, 1989, 13, 263-270) and their activity was determined as pKB ([…] of the dissociation constant), as described in Jenkinson et al., TiPS, 12, 53-56, 1991. For example, compound 2 has shown a pKB =8.67. The capability of the products of the present invention to interact as agonists or antagonists with NKA receptor has been valued in vivo as capability, after intravenous administration,to inhibit the agonist [betaAla^8 ] NKA (4-10)-induced contractions of the urinary bladder in the anaesthetized mouse, as described in Maggi et al., J. Pharmacol. Exp. Ther., 1991, 257, 1172. Compound 1, e.g., causes, at dose of 10 nmol/Kg i.v., an inhibitory effect of 50-70%, as it has been valued at different times. The effect lasts over a period of more than 3 hours.

For the substance “cyclo([Asn(β-D-Glc)-Asp-Trp-Phe-Dap-Leu]cyclo(2β-5β)) [Compound 1]”, the “duration of the inhibitory effect” value is given as “more than 3 hours”. Besides, the “inhibitory effect on [betaAla8]NKA(4-10)-induced contractions of the urinary bladder” value (valued at different times) is reported as 50-70%.
